Reference: patent publication US20170246111A1, “ACTIVE-LOADED PARTICULATE MATERIALS FOR TOPICAL ADMINISTRATION” (PHARMASOL GMBH, priority 2014, published 2017)

Assays:
[1] = 40 min
Method: 35.0% azithromycin physical mixture was as well dispersed in Milli-Q® water to get a final concentration of azithromycin of 5.6% in vials. Furthermore, 5.6% coarse drug powder was suspended in Milli-Q® water for comparison. The samples were stored at 25° C. shaking with 100 rpm in an Innova® 4230 shaker for 40 minutes. To separate the dissolved drug, the samples were first centrifuged (17,968×g; 10 minutes) and subsequently the supernatant was filtered (50 nm pore size, Whatman® 110603 filter). The drug concentration in such obtained sample was determined by HPLC.

[2] = at 25° C. in water, Mauludin PhD thesis 2008; cited from earlier work

SMILES	saturation solubility in water [1]	saturation solubility Cs [2]
CC[C@H]1OC(=O)[C@H](C)[C@@H](O[C@H]2C[C@@](C)(OC)[C@@H](O)[C@H](C)O2)[C@H](C)[C@@H](O[C@@H]2O[C@H](C)C[C@H](N(C)C)[C@H]2O)[C@](C)(O)C[C@@H](C)CN(C)[C@H](C)[C@@H](O)[C@]1(C)O [azithromycin raw drug powder, azithromycin]	93 µg/mL	
COc1ccc([C@@H]2CC(=O)c3c(O)cc(O[C@@H]4O[C@H](CO[C@@H]5O[C@@H](C)[C@H](O)[C@@H](O)[C@H]5O)[C@@H](O)[C@H](O)[C@H]4O)cc3O2)cc1O [hesperidin raw powder, hesperidin]		about 20 μg/ml
